How the values were obtained:
Neutrophil [1] = experiment: Inhibition of immune complex-stimulated neutrophil oxidative metabolism in New Zealand white rabbit neutrophils assessed as ROS generation at 50 uM after 30 mins by lucigenin enhanced chemiluminescence assay; assay type: functional; conditions: Oryctolagus cuniculus, 0.5 h
Neutrophil [2] = experiment: Inhibition of immune complex-stimulated neutrophil oxidative metabolism in New Zealand white rabbit neutrophils assessed as ROS generation at 50 uM after 30 mins by luminol enhanced chemiluminescence assay; assay type: functional; conditions: Oryctolagus cuniculus, 0.5 h
Neutrophil [3] = experiment: Inhibition of immune complex-stimulated neutrophil oxidative metabolism in New Zealand white rabbit neutrophils assessed as ROS generation after 30 mins by lucigenin enhanced chemiluminescence assay; assay type: functional, cell-based; conditions: Oryctolagus cuniculus, 0.5 h
Neutrophil [4] = experiment: Inhibition of immune complex-stimulated neutrophil oxidative metabolism in New Zealand white rabbit neutrophils assessed as ROS generation after 30 mins by luminol enhanced chemiluminescence assay; assay type: functional, cell-based; conditions: Oryctolagus cuniculus, 0.5 h
[5] = Cytotoxicity against New Zealand white rabbit neutrophils assessed as cell viability at 50 uM after 30 mins by trypan blue exclusion test; assay type: cell-based, Oryctolagus cuniculus, Neutrophil; conditions: read-out: Activity
[6] = Cytotoxicity against New Zealand white rabbit neutrophils assessed as LDH release at 50 uM after 30 mins by spectrophotometry; assay type: cell-based, Oryctolagus cuniculus; conditions: neutrophil, 0.5 h

Row | Structure (SMILES) | inhibition at 50 µM (Neutrophil [1]) [%] | inhibition at 50 µM (Neutrophil [2]) [%] | IC50 (Neutrophil [3]; read-out: IC50) [µM] | IC50 (Neutrophil [3]; read-out: pIC50 (converted)) [µM] | IC50 (Neutrophil [4]; read-out: IC50) [µM] | IC50 (Neutrophil [4]; read-out: pIC50 (converted)) [µM] | viability at 0.5 h, 50 µM [5] [%] | Activity [6] [%]
1 | O=c1oc2ccc(O)cc2cc1-c1ccccc1O | 99.9 | 99 | 2.5 | 2.51 | 2.8 | 2.82 | 94.8 | 9.8
2 | O=c1oc2ccc(O)cc2cc1-c1ccc(O)c(O)c1 | 98.7 | 99.2 | 4.4 | 4.47 | 4.9 | 4.9 | 92.8 | 11.9
3 | O=c1oc2cc(O)c(O)cc2cc1-c1ccc(O)c(O)c1 | 94.9 | 92.4 | 5.2 | 5.25 | 13.4 | 13.5 | 92 | 10.5
4 | O=c1oc2cc(O)c(O)cc2cc1-c1ccc2c(c1)OCO2 | 99.6 | 99.8 | 0.7 | 0.724 | 0.7 | – | 93.2 | 15.3
5 | COC(=O)Oc1cccc(-c2cc3cc(OC(=O)OC)ccc3oc2=O)c1 | 82.1 | 66.3 | 6.9 | 6.92 | 21.7 | 21.9 | 94 | 9.3
6 | O=c1oc2ccc(O)cc2cc1-c1ccccc1 | 83.5 | 21.8 | 8 | 7.94 | > 50 | – | 92.3 | 10.7
7 | COC(=O)Oc1ccc2oc(=O)c(-c3ccc4c(c3)OCO4)cc2c1 | 68 | 13.7 | 5.4 | 5.37 | > 50 | – | 95.5 | 11.4
8 | COC(=O)Oc1cc2cc(-c3ccc4c(c3)OCO4)c(=O)oc2cc1OC(=O)OC | 99 | 99.4 | 0.7 | 0.692 | 0.7 | 0.661 | 95 | 11.9
9 | O=c1oc2ccccc2cc1-c1ccc2c(c1)OCO2 | 5.7 | 10.1 | > 50 | – | > 50 | – | 96 | 11.9
10 | COC(=O)Oc1ccc2oc(=O)c(-c3ccccc3)cc2c1 | 80.5 | 50.5 | 7.4 | 7.41 | 31.2 | 30.9 | 93.8 | 11.3
11 | O=c1oc2ccc(O)cc2cc1-c1cccc(O)c1 | 94.1 | 31.7 | 5.2 | 5.25 | > 50 | – | 93.8 | 11.2
12 | COC(=O)Oc1ccc(-c2cc3cc(OC(=O)OC)c(OC(=O)OC)cc3oc2=O)cc1OC(=O)OC | 99.9 | 99.9 | 0.4 | 0.363 | 0.4 | 0.389 | 88.8 | 20.7
13 | O=c1oc2ccc(O)cc2cc1-c1ccc(O)cc1 | 95.7 | 69.8 | 4.3 | 4.37 | 29.6 | 29.5 | 89.5 | 18.3
14 | COC(=O)Oc1ccc2oc(=O)c(-c3ccc(OC(=O)OC)c(OC(=O)OC)c3)cc2c1 | 97.5 | 92.3 | 1.8 | 1.78 | 2 | 2.04 | 93.3 | 9.3
15 | COC(=O)Oc1ccc(-c2cc3cc(OC(=O)OC)ccc3oc2=O)cc1 | 92.5 | 60.3 | 4 | 3.98 | 27.4 | 27.5 | 92.5 | 11.6
16 | COC(=O)Oc1ccc2oc(=O)c(-c3ccccc3OC(=O)OC)cc2c1 | 96.5 | 94.6 | 2.6 | 2.57 | 2.9 | 2.88 | 90.3 | 14.6
17 | COC(=O)Oc1ccc2cc(-c3ccc4c(c3)OCO4)c(=O)oc2c1 | 67.1 | 7.9 | 7.3 | ≥ 7.24 | > 50 | – | 94.3 | 13.8
18 | O=c1oc2cc(O)ccc2cc1-c1ccc2c(c1)OCO2 | 79.4 | 17.5 | 8.6 | 8.51 | > 50 | – | 94.3 | 11.1
19 | O=c1oc2ccc(O)cc2cc1-c1ccc2c(c1)OCO2 | 83.5 | 23.2 | 5.6 | 5.62 | > 50 | – | 93.8 | 9
20 | O=c1oc2ccccc2cc1-c1ccccc1 | 27.9 | 9 | > 50 | – | > 50 | – | 90.3 | 17.1
21 | O=c1c(O)c(-c2ccc(O)c(O)c2)oc2cc(O)cc(O)c12 [QUERCETIN] | 99.9 | 99.9 | 4.7 | – | 2.4 | – | 93 | 10.9

Reference: ChEMBL document CHEMBL1156679, “Inhibition of immune complex-mediated neutrophil oxidative metabolism: a pharmacophore model for 3-phenylcoumarin derivatives using GRIND-based 3D-QSAR and 2D-QSAR procedures” (Eur J Med Chem, 2008)
